Results on two compounds are retold here after US11150234B2, “Method for evaluating taxic behavior in response to odor substance based on olfactory sense in nematodes, and dish and behavior evaluation system used in evaluation method” (priority 2016, dated 2021).

One test deals with wild type C. elegans. Description: Taxic behavior evaluation through olfactory sense using 5 cm×2 cm rectangular dish, without nematicide. The following applies: for taxis index: 10 minutes after dissemination, 1 μL isoamyl alcohol diluted 1000-fold with water or 1 μL nonanone stock solution, average of 5 experiments. Format: in vivo, Caenorhabditis elegans. On the procedure: First, a rectangular dish having a bottom surface of 5 cm×2 cm was fabricated as an example (see FIGS. 1A and B). Nematodes were disseminated into a region defined by two lines at the center of the rectangular dish in the longitudinal direction, and an attractant or a repellent was applied to the region at the left end. […] In this example, isoamyl alcohol was used as an attractant, and nonanone was used as a repellent. Specifically, isoamyl alcohol was diluted 1000-fold with water, and 1 μL thereof was applied to the region at the left end. Further, 1 μL of the stock solution of nonanone was applied to the region at the left end. As the nematodes, wild type C. elegans (10 to 50 nematodes/experiment) were used. […] Specifically, the difference in the number of nematodes between those moved to the region (region indicated by O-mark in FIG. 4, corresponding to region 1 of the first embodiment) located between the region at the left end to which an attractant or a repellent was applied and the region at the center in the longitudinal direction in which the nematodes were disseminated and those moved to the region on the opposite side (region indicated by X-mark in FIG. 4, corresponding to region 2 of the first embodiment) was determined, and the result was divided by the number of all nematodes to determine the taxis index. Taxis Index (Taxis index)={(the number of nematodes in region indicated by symbol “O”)−(the number of nematodes in region indicated by symbol “X”)}/the number of all nematodes The experiment was repeated 5 times, to determine the average of taxis indices and SEM. The taxic behavior was evaluated in the same manner as in Example 1 except that urine (1/20 dilution) of a cancer patient or urine (1/20 dilution) of a healthy individual was used as an attractant or a repellent. […] Urine obtained from a plurality of different cancer patients was used.

The test system of another test is N2 Bristol strains. Description: Taxic behavior evaluation system of third embodiment (5 cm×2 cm×1 mm recess in solid medium covered with plate). Conditions: 23° C., IAA diluted 10^−5-fold. Format: in vivo, Caenorhabditis elegans. Here is the method:
The taxic behavior based on olfactory sense was evaluated using N2 Bristol strains that are nematode strains. […] After a reagent was mixed using the culture medium composition of the assay plate, followed by autoclaving, an appropriate amount of the reagent was poured into a 9 cm dish, and the solid medium was solidified by cooling while pressing a plastic plate of 5 cm×2 cm×1 mm against the surface. After the solid medium was solidified, the plastic plate was removed, to form a recess with a length of 5 cm, a width of 2 cm, and a depth of 1 mm on the surface of the solid medium. Then, isoamyl alcohol (IAA) diluted 10^-5-fold or nonanone (Nona) diluted 10^-3-fold was arranged at the position shown by the symbol “+” on the right side of FIG. 13, and nematodes cultured at 20° C. for 4 days were arranged at the center (which corresponded to region B in FIG. 13). Thereafter, the taxic behavior of nematodes at 23° C. was observed. The number of nematodes in the regions corresponding to regions A, B, and C in FIG. 13 were counted after a lapse of 0 minutes, 5 minutes, 10 minutes, and 20 minutes. The number of nematodes remaining was calculated as a ratio of the number of nematodes in response to the number of nematodes at 0 minutes at each time. Further, the taxis index was calculated based on the formula [[…])]. Here, N (A) is the number of nematodes that moved to region A, and N (B) is the number of nematodes that moved to region B.

[1] abbreviates: at 5 minutes, nonanone diluted 10^−3-fold.

`CCCCCCCC(C)=O` [nonanone]: the taxis index entry with wild type C. elegans is reported as “below −0.8”. Also, the “nematodes showing avoidance behavior in response to the repellent” value in the test with wild type C. elegans (10 minutes, from taxis index) is not below 90%. Moreover, in the test on N2 Bristol strains (setting [1]), the taxic behavior observed entry is recorded as “avoidance behavior”.

`CC(C)CCO` [isoamyl alcohol]: the taxis index result in the test on wild type C. elegans was “over 0.8”. The “nematodes showing attraction behavior in response to the attractant” value with wild type C. elegans (10 minutes, from taxis index) was not below 90%. Also, the taxic behavior observed result in the test with N2 Bristol strains (setting [1]) and in the test on N2 Bristol strains (at 20 minutes) was “migration behavior” each time.
